Measured values: PubChem BioAssay AID330 (DTP/NCI, 2004)
“And” between values parts separate entries of the source, which are not always exact repeats. Identical values can stand only once. Inconclusive results and toxic doses are left out.

System: P388 leukemia ip, CD2F1 mice, survival T/C
Test: NCI In Vivo Anticancer Drug Screen. Data for tumor model P388 Leukemia (intraperitoneal) in CD2F1 (CDF1) mice
Conditions: endpoint: median survival time, higher = longer survival
Procedure, shortened: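 Mice carrying the transplanted tumor received test compound or vehicle. Survival was recorded in each group, and the value is the treated-group measurement divided by that of the vehicle-treated control group.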

[1] = dose: 100.0 mg/kg/injection, schedule: Q04DX002 (ip), vehicle: Klucel (hydroxypropylcellulose) (HPC)
[2] = dose: 200.0 mg/kg/injection, schedule: Q04DX002 (ip), vehicle: Klucel (hydroxypropylcellulose) (HPC)
[3] = dose: 400.0 mg/kg/injection, schedule: Q04DX002 (ip), vehicle: Klucel (hydroxypropylcellulose) (HPC)
[4] = dose: 50.0 mg/kg/injection, schedule: Q01DX009 (ip), vehicle: saline with Tween-80
[5] = dose: 100.0 mg/kg/injection, schedule: Q01DX009 (ip), vehicle: saline with Tween-80
[6] = dose: 200.0 mg/kg/injection, schedule: Q01DX009 (ip), vehicle: saline with Tween-80
[7] = dose: 400.0 mg/kg/injection, schedule: Q01DX009 (ip), vehicle: saline with Tween-80
[8] = dose: 50.0 mg/kg/injection, schedule: Q01DX005 (ip), vehicle: Klucel (hydroxypropylcellulose) (HPC)
[9] = dose: 100.0 mg/kg/injection, schedule: Q01DX005 (ip), vehicle: Klucel (hydroxypropylcellulose) (HPC)
[10] = dose: 200.0 mg/kg/injection, schedule: Q01DX005 (ip), vehicle: Klucel (hydroxypropylcellulose) (HPC)
[11] = dose: 50.0 mg/kg/injection, schedule: Q01DX005 (ip), vehicle: saline
[12] = dose: 100.0 mg/kg/injection, schedule: Q01DX005 (ip), vehicle: saline
[13] = dose: 200.0 mg/kg/injection, schedule: Q01DX005 (ip), vehicle: saline
[14] = dose: 50.0 mg/kg/injection, schedule: Q04DX003 (ip), vehicle: saline with Tween-80
[15] = dose: 100.0 mg/kg/injection, schedule: Q04DX003 (ip), vehicle: saline with Tween-80
[16] = dose: 200.0 mg/kg/injection, schedule: Q04DX003 (ip), vehicle: saline with Tween-80
[17] = dose: 60.0 mg/kg/injection, schedule: Q01DX005 (ip), vehicle: saline with Tween-80
[18] = dose: 120.0 mg/kg/injection, schedule: Q01DX005 (ip), vehicle: saline with Tween-80
[19] = dose: 240.0 mg/kg/injection, schedule: Q01DX005 (ip), vehicle: saline with Tween-80

CS(=O)c1c(C(=O)O)cc(C(C)(C)C)cc1C(=O)O (stereo not given)
T/C [1]: 105 % of control | T/C [2]: 107 % of control | T/C [3]: 96 % of control

Cc1cccc(/C=N/Nc2ccc3ccccc3n2)n1
T/C (dose: 6.25 mg/kg/injection, schedule: Q01DX005 (ip), vehicle: Klucel (hydroxypropylcellulose) (HPC)): 102 % of control | T/C (dose: 12.5 mg/kg/injection, schedule: Q01DX005 (ip), vehicle: Klucel (hydroxypropylcellulose) (HPC)): 95 % of control | T/C (dose: 25.0 mg/kg/injection, schedule: Q01DX005 (ip), vehicle: Klucel (hydroxypropylcellulose) (HPC)): 96 % of control

CC(=O)Nc1cccc2c1C(=O)OC2=O
T/C [4]: 100 % of control | T/C [5]: 109 % of control | T/C [6]: 108 % of control | T/C [7]: 102 % of control

O=C(c1nc2ccccc2[nH]1)N1CCN(c2ccccc2)CC1
T/C [8]: 104 % of control | T/C [9]: 107 % of control and 95 % of control | T/C [10]: 101 % of control and 110 % of control

CC(=O)SC1(C(C(N)=S)c2ccccc2)CCN(C)CC1 (stereo not given)
T/C [11]: 105 % of control | T/C [12]: 111 % of control | T/C [13]: 101 % of control

CCNCC(O)c1ccc(F)cc1 (stereo not given)
T/C (dose: 50.0 mg/kg/injection, schedule: Q01DX009 (ip), vehicle: saline): 101 % of control | T/C (dose: 100.0 mg/kg/injection, schedule: Q01DX009 (ip), vehicle: saline): 96 % of control | T/C (dose: 200.0 mg/kg/injection, schedule: Q01DX009 (ip), vehicle: saline): 91 % of control

COc1ccc(/C=C2\SC(=S)N(C3CC3)C2=O)cc1OC
T/C [8]: 94 % of control | T/C [9]: 88 % of control

COc1cc(/C=C/c2ccc3ccccc3n2)cc(OC)c1OC
T/C [14]: 100 % of control | T/C [5]: 86 % of control | T/C [15]: 100 % of control | T/C [6]: 90 % of control | T/C [16]: 100 % of control

CC(C)C(C(O)c1ccccc1)[N+](=O)[O-] (stereo not given)
T/C [5]: 104 % of control | T/C [6]: 95 % of control | T/C [7]: 86 % of control

NCCCCCCCC(=O)NCCCCCCCC(=O)NCCCCCCCC(=O)NCCCCCCCC(=O)NN
T/C (dose: 50.0 mg/kg/injection, schedule: Q01DX005 (ip), vehicle: saline with Tween-80): 100 % of control | T/C (dose: 100.0 mg/kg/injection, schedule: Q01DX005 (ip), vehicle: saline with Tween-80): 100 % of control | T/C (dose: 200.0 mg/kg/injection, schedule: Q01DX005 (ip), vehicle: saline with Tween-80): 91 % of control

O=C1CCC(C(=O)N2CCCC2)N1 (stereo not given)
T/C [11]: 96 % of control and 100 % of control | T/C [12]: 104 % of control and 98 % of control | T/C [13]: 104 % of control and 97 % of control

c1ccc2c(c1)[nH]c1c2nc2sccn21
T/C (dose: 60.0 mg/kg/injection, schedule: Q01DX005 (ip), vehicle: Klucel (hydroxypropylcellulose) (HPC)): 115 % of control | T/C (dose: 120.0 mg/kg/injection, schedule: Q01DX005 (ip), vehicle: Klucel (hydroxypropylcellulose) (HPC)): 115 % of control | T/C (dose: 240.0 mg/kg/injection, schedule: Q01DX005 (ip), vehicle: Klucel (hydroxypropylcellulose) (HPC)): 116 % of control

CC(=O)OC1C(O)C(C)OC(OC2C(OC(=O)C3CCC4C(C3)OC3(CC(OC(=O)/C=C/c5ccccc5)C(C)CO3)C43CO3)OC(CO)C(O)C2OC(C)=O)C1O (stereo not given)
T/C (dose: 1.5 mg/kg/injection, schedule: Q01DX009 (ip), vehicle: saline + alcohol): 106 % of control | T/C (dose: 3.0 mg/kg/injection, schedule: Q01DX009 (ip), vehicle: saline + alcohol): 106 % of control and 116 % of control

COc1nc(NC2OC(CO)C(O)C(O)C2O)c(C(=O)CCl)c(=O)n1C (stereo not given)
T/C [17]: 92 % of control | T/C [18]: 87 % of control | T/C [19]: 95 % of control and 96 % of control

Cc1cc(=O)oc2c(C)c3oc4ccncc4c3cc12
T/C [8]: 104 % of control | T/C [9]: 110 % of control | T/C [10]: 107 % of control

CC1(C)OCC(CO)(Nc2nc(N3CC3)nc(N3CC3)n2)CO1
T/C (dose: 0.62 mg/kg/injection, schedule: Q01DX009 (ip), vehicle: saline): 120 % of control | T/C (dose: 1.25 mg/kg/injection, schedule: Q01DX009 (ip), vehicle: saline): 158 % of control and 164 % of control | T/C (dose: 2.5 mg/kg/injection, schedule: Q01DX009 (ip), vehicle: saline): 199 % of control and 229 % of control | T/C (dose: 3.75 mg/kg/injection, schedule: Q01DX009 (ip), vehicle: saline): 187 % of control | T/C (dose: 5.0 mg/kg/injection, schedule: Q01DX009 (ip), vehicle: saline): 89 % of control and 98 % of control

Cc1ccc(CN2CCN(Cc3ccc(C)o3)C(C)C2)o1 (stereo not given)
T/C [11]: 101 % of control | T/C [12]: 101 % of control | T/C [13]: 100 % of control

Cc1cc2c(c(=O)o1)C1(C)CC(C)(O2)c2c(cc(C)oc2=O)O1
T/C [17]: 99 % of control | T/C [18]: 95 % of control | T/C [19]: 89 % of control

CC(C)C/C=N/N(C)C=O
T/C (dose: 100.0 mg/kg/injection, schedule: Q04DX002 (ip), vehicle: saline): 100 % of control | T/C (dose: 200.0 mg/kg/injection, schedule: Q04DX002 (ip), vehicle: saline): 100 % of control | T/C (dose: 400.0 mg/kg/injection, schedule: Q04DX002 (ip), vehicle: saline): 103 % of control

CCC[CH2][Sn]([CH2]CCC)([CH2]CCN(C)C)[CH2]CCN(C)C
T/C [4]: 97 % of control | T/C [5]: 104 % of control

N#Cc1c2ccccc2c(=O)n2ccccc12
T/C [1]: 94 % of control | T/C [2]: 88 % of control | T/C [3]: 94 % of control

CC(/C=C/C(=O)NO)=C\C(C)C(=O)c1ccc(N(C)C)cc1 (stereo not given)
T/C (dose: 2.19 mg/kg/injection, schedule: Q01DX009 (ip), vehicle: Klucel (hydroxypropylcellulose) (HPC)): 107 % of control | T/C (dose: 4.38 mg/kg/injection, schedule: Q01DX009 (ip), vehicle: Klucel (hydroxypropylcellulose) (HPC)): 114 % of control | T/C (dose: 8.75 mg/kg/injection, schedule: Q01DX009 (ip), vehicle: Klucel (hydroxypropylcellulose) (HPC)): 122 % of control and 96 % of control | T/C (dose: 8.75 mg/kg/injection, schedule: Q01DX009 (ip), vehicle: saline with Tween-80): 152 % of control | T/C (dose: 17.5 mg/kg/injection, schedule: Q01DX009 (ip), vehicle: Klucel (hydroxypropylcellulose) (HPC)): 91 % of control | T/C (dose: 17.5 mg/kg/injection, schedule: Q01DX009 (ip), vehicle: saline with Tween-80): 90 % of control

S=C(NC1CCCCC1)N1CCC(CCCC2CCN(C(=S)NC3CCCCC3)CC2)CC1
T/C (dose: 25.0 mg/kg/injection, schedule: Q04DX003 (ip), vehicle: saline with Tween-80): 90 % of control | T/C [4]: 90 % of control | T/C [14]: 90 % of control | T/C [5]: 90 % of control and 95 % of control | T/C [15]: 90 % of control | T/C [6]: 90 % of control | T/C [16]: 90 % of control | T/C [7]: 95 % of control | T/C (dose: 400.0 mg/kg/injection, schedule: Q04DX003 (ip), vehicle: saline with Tween-80): 90 % of control

O=C1NC(=O)C2(CCCc3ccc(N(CCO)CCO)cc32)N1 (stereo not given)
T/C (dose: 50.0 mg/kg/injection, schedule: Q01DX009 (ip), vehicle: DMSO): 106 % of control | T/C (dose: 100.0 mg/kg/injection, schedule: Q01DX009 (ip), vehicle: DMSO): 103 % of control | T/C (dose: 200.0 mg/kg/injection, schedule: Q01DX009 (ip), vehicle: DMSO): 106 % of control

CC(=O)CC(=O)N/N=C(N)/C(C#N)=N/N(C)c1ccccc1
T/C (dose: 100.0 mg/kg/injection, schedule: Q04DX002 (ip), vehicle: saline with Tween-80): 97 % of control | T/C (dose: 200.0 mg/kg/injection, schedule: Q04DX002 (ip), vehicle: saline with Tween-80): 94 % of control | T/C (dose: 400.0 mg/kg/injection, schedule: Q04DX002 (ip), vehicle: saline with Tween-80): 96 % of control

O=C1CC(c2ccc([N+](=O)[O-])cc2)O1 (stereo not given)
T/C (dose: 100.0 mg/kg/injection, schedule: Q01DX001 (ip), vehicle: saline): 101 % of control | T/C (dose: 200.0 mg/kg/injection, schedule: Q01DX001 (ip), vehicle: saline): 104 % of control | T/C (dose: 400.0 mg/kg/injection, schedule: Q01DX001 (ip), vehicle: saline): 102 % of control

O=C1c2ccccc2C(=O)c2c1ccc1c2CCC1
T/C (dose: 7.5 mg/kg/injection, schedule: Q01DX009 (ip), vehicle: saline with Tween-80): 97 % of control | T/C (dose: 15.0 mg/kg/injection, schedule: Q01DX009 (ip), vehicle: saline with Tween-80): 95 % of control | T/C (dose: 30.0 mg/kg/injection, schedule: Q01DX009 (ip), vehicle: saline with Tween-80): 105 % of control

COc1ccc(C(=O)c2c(OC)cccc2C(=O)O)cc1
T/C [8]: 105 % of control | T/C [9]: 105 % of control | T/C [10]: 97 % of control
